Source: US20220347175A1, “PYRIDAZINONE DERIVATIVE” (Sumitomo Dainippon Pharma Co., Ltd., priority 2018, published 2022)

Experiments:
[1] = biological target: T1, human Nav1.1 (Homo sapiens, UniProt P35498); experiment: Amplification of Nav1.1-derived voltage-dependent sodium current (Nav1.1 current), cell line stably expressing human Nav1.1, automated patch clamp; format: cell-based; details: compound 1 μmol/L; HEK293 stably expressing human Nav1.1; read-out: Nav1.1 current amplification rate (%)
T1 construct: host or cells: HEK293
Outline: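 Amplification rate (%) is 100 × post-compound/pre-compound Nav1.1 peak current or AUC, minus 100. Ramp-evoked sodium currents were recorded by automated patch clamp in a human Nav1.1 HEK293 stable line, restricted to cells exceeding 500 pA, with compounds added in extracellular solution containing 1% DMSO.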

[2] = biological target: T2, human Nav1.5 (Homo sapiens, UniProt Q14524); experiment: Amplification of Nav1.5-derived voltage-dependent sodium current (Nav1.5 current), cell line stably expressing human Nav1.5, automated patch clamp; format: cell-based; details: compound 1 μmol/L; CHO-K1 stably expressing human Nav1.5; read-out: Nav1.5 current amplification rate (%)
T2 construct: expressed in transfected cells; host or cells: CHO-K1 (T-REx System, ThermoFisher Scientific)
T2 sequence (Q14524 1-2015 isoform Q14524-2): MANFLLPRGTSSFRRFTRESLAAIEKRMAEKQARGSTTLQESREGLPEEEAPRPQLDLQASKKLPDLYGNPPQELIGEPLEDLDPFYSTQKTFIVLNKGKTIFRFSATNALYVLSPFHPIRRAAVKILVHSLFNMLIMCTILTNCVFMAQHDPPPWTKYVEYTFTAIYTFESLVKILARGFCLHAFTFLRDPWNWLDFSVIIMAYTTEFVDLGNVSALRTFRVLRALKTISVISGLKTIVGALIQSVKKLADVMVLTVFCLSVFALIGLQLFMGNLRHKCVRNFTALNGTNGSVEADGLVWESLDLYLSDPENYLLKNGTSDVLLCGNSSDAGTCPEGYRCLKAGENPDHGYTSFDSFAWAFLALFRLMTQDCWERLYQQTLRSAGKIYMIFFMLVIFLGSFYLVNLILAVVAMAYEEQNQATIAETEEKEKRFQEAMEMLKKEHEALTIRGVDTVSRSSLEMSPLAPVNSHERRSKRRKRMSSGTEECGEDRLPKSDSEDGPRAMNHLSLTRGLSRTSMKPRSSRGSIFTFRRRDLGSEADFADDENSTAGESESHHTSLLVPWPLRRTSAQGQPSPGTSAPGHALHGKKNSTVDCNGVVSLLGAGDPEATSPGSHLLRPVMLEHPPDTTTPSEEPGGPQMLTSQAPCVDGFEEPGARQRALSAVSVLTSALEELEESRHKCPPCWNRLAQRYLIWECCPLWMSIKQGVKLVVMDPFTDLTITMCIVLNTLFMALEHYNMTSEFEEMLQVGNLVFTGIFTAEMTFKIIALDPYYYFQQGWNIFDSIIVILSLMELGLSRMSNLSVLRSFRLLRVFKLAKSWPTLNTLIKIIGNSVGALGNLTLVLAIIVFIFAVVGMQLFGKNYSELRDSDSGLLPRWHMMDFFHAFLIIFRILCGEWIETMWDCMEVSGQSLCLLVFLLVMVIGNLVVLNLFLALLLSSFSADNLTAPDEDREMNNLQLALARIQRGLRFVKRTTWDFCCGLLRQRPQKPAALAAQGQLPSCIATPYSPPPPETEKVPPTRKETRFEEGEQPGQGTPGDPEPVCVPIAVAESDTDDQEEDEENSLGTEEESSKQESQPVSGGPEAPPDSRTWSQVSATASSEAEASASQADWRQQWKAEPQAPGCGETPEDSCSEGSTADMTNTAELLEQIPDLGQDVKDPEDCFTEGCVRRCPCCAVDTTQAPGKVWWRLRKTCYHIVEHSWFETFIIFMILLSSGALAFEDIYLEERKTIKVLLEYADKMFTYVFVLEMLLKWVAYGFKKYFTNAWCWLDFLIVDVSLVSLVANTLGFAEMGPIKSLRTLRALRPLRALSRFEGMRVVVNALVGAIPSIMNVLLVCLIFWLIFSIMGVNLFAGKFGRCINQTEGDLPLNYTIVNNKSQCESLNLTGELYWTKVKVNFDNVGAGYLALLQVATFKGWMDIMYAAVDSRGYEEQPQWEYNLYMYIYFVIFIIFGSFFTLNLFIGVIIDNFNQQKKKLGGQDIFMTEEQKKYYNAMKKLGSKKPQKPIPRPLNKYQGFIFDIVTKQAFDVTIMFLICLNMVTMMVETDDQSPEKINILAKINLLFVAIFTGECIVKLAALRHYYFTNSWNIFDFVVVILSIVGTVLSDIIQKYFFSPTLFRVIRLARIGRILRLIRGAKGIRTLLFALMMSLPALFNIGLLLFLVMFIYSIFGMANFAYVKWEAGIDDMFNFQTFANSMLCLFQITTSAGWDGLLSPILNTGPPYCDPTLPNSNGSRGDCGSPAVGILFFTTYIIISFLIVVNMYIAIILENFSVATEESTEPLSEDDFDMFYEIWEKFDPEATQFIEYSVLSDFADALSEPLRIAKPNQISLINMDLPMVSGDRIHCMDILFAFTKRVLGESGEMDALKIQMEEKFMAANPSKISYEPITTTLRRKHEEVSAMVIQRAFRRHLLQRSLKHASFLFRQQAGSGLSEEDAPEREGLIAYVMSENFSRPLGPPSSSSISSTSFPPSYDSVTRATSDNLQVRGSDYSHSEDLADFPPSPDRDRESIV

With C[C@H]1CC=C(c2ccc(=O)n(CC(=O)Nc3ccc4ncnn4c3)n2)CC1 [Example 540, 2-{3-[(4R)-4-methylcyclohex-1-en-1-yl]-6-oxopyridazin-1(6H)-yl}-N-([1,2,4]triazolo[1,5-a]pyridin-6-yl)acetamide] the activation at 1 µM [1] was 112% and the activation at 1 µM [2] was 15%.
